Measurements taken from patent publication US9126999B2, “Tetrahydropyrazolopyrimidine compounds” (EISAI R&D MANAGEMENT CO., LTD., priority 2012, dated 2015).
“Also recorded” adds a separate entry of the source.

Tested on: DBA/1 mice
Test: Pristane: DBA/1 strain lupus disease model
Format: in vivo, mouse
Method: Figure Legend: Female DBA/1 mice at 10-11 weeks of age were given an intraperitoneal injection of 0.5 ml pristane or PBS. Once-a-day oral dosing with Vehicle (Veh; 0.5% methyl-cellulose) or 300 mg/kg ER-892887 was begun 3.5 months after pristane injection for a total of 3 months treatment. (A) Mice were euthanized after 3 months of compound treatment, and anti-dsDNA and anti-RiboP titers were measured in blood plasma samples by ELISA (statistical significance determined by Mann-Whitney test). (B) Arthritis development was assessed monthly by visual scoring. (C) The expression of IFN-regulated genes in whole blood was measured by a qPCR panel after 3 months of treatment, and an IFN gene signature score was calculated (see Pharmacology Materials and Methods section for details regarding IFN score calculation).
Figure Legend: Female DBA/1 mice at 11-12 weeks of age were given an intraperitoneal injection of 0.5 ml of pristane or PBS. Once-a-day oral dosing with Vehicle (Veh; 0.5% methyl-cellulose) or 33, 100, or 300 mg/kg ER-892887 was begun 2 months after pristane injection for a total of 3 months treatment. Mice were euthanized after 3 months of compound treatment, and anti-dsDNA (A), -RiboP (B), -Sm/nRNP (C), and -Histone (D) titers were measured in blood plasma samples by ELISA (statistical significance determined by Mann-Whitney test). (E) Summary of mortality observed in the study during 3 months of compound treatment. (F) The expression of IFN-regulated genes in whole blood was measured by a qPCR panel at the last time point for Vehicle and 300 mg/kg ER-892887 treated mice, and an IFN gene signature score was calculated (see Pharmacology Materials and Methods section for details regarding IFN score calculation).
Figure Legend: Female DBA/1 mice at 11 weeks of age were given an intraperitoneal injection of 0.5 ml pristane or PBS. Once-a-day oral dosing with Vehicle (Veh; 0.5% methyl-cellulose) or 300 mg/kg ER-892887, 100 mg/kg hydroxychloroquine, 1 mg/kg prednisolone or 100 mg/kg mycophenolate was begun 2 months after pristane injection and continued for 3 months of treatment. (A) At the end of the 3 month treatment arthritis development was assessed by visual scoring of swelling and inflammation. (B) Mice were euthanized after 3 months of compound treatment, and anti-dsDNA, anti-histone, anti-Sm/RNP and anti-RiboP titers were measured in blood plasma samples by ELISA (statistical significance determined by Mann-Whitney test). ELISA values falling above or below the range of the standard curve were assigned a value equal to the highest or lowest valid measurement, as appropriate. (C) The expression of IFN-regulated genes in whole blood was measured by a qPCR panel after 3 months of treatment. […] (D) IFN scores of genes regulated by pristane in this experiment are shown.
FIG. 14 presents the effect of compound ER-892887 on arthritis and autoantibodies in the Pristane: DBA/1 strain lupus disease model. Figure Legend: Female DBA/1 mice at 10 weeks of age were given an intraperitoneal injection of 0.5 ml pristane or PBS. At 22 weeks of age, mice were randomized into groups with equivalent median anti-dsDNA titers and treated with Vehicle (Veh; 0.5% methyl-cellulose) alone or 300 mg/kg ER-892887 once-a-day orally (QD PO). Arthritis symptoms (swelling and inflammation) were recorded monthly by blinded observers. All mice were sacrificed at 34 weeks of age (12 weeks of treatment) and blood plasma autoantibody titers were determined by ELISA. Prior to termination paws were x-rayed and scored for bone damage and erosions by two blinded analysts. (A) Top—Arthritis scores were calculated monthly in vehicle and compound dosed-groups. (A) Bottom—X-ray scores were calculated after three months of treatment. (B) Autoantibody titers were measured in terminal blood plasma samples by ELISA (statistical significance determined by Mann-Whitney test). […]

COc1ccc([C@@H]2C[C@H](C(F)(F)F)n3nc(-c4ccc(C(=O)N5CCNCC5)cc4)cc3N2)cc1OC [ER-892887, (4-((5S,7R)-5-(3,4-dimethoxyphenyl)-7-(trifluoromethyl)-4,5,6,7-tetrahydropyrazolo[1,5-a]pyrimidin-2-yl)phenyl)(piperazin-1-yl)methanone]
IFN gene signature score: reduction | RNA-related reactivity such as anti-RiboP titers: particularly robust impact | arthritis severity: reduced arthritis severity | interferon gene signature score, comparison with three commonly used lupus treatments: suppressed the interferon gene signature score significantly | various auto-antibodies: suppressed | suppression of autoantibodies compared with hydroxychloroquine or prednisolone (at the doses tested): better | whole blood interferon-driven gene expression (qPCR panel): reduction; also recorded: suppressed
